pKd: −log10 of the molar value. Like-named read-outs stand apart in the source and are kept apart here. *1 amine or outer side, *2 acyl side, *3 side chain or, on linkers, in order; H or OH if unused. Where a SMILES comes first, the peptide text is derived from it. Bridges are numbered along the chain shown (N, C = ends). [ ]: non-standard residue; d: D form. The star is where a group is joined. hPhe(3-Cl-4-CF3) = N[C@@H](CCc1ccc(C(F)(F)F)c(Cl)c1)C(=O)O; NPrPhe(4-CF3) = CCCN[C@@H](Cc1ccc(C(F)(F)F)cc1)C(=O)O; X28 = COCCCN([C@@H](Cc1ccc(C)cc1)C(=O)[*:2])[*:1]; NMeGly(cPent) = CN[C@H](C(=O)O)C1CCCC1; Hyp = O=C(O)[C@@H]1C[C@@H](O)CN1; NMeD = CN[C@@H](CC(=O)O)C(=O)O; NMeL = CN[C@@H](CC(C)C)C(=O)O; Morpholide = C1CN(*)CCO1; NMeA = CN[C@@H](C)C(=O)O; Ac5c = NC1(C(=O)O)CCCC1; Aze = O=C(O)[C@@H]1CCN1; Ac4c = NC1(C(=O)O)CCC1; NEtG = CCNCC(=O)O; Sar = CNCC(=O)O
Experiments:
[1] = target: GDP-bound HRAS wild-type protein (Homo sapiens, UniProt P01112); experiment: Binding to HRAS by surface plasmon resonance (SPR), Single Cycle Kinetics; settings: SPR, GDP-bound HRAS wild-type protein vs GDP-bound KRAS wild-type protein
Sequence of GDP-bound HRAS wild-type protein (P01112 whole entry): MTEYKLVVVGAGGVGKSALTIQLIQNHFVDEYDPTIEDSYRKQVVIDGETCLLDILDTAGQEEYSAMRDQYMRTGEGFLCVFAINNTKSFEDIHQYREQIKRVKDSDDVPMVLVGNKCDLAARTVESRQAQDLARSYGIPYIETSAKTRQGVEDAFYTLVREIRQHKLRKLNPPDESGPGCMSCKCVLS

[2] = target: GDP-bound KRAS wild-type protein (Homo sapiens, UniProt P01116); experiment: Binding to KRAS by surface plasmon resonance (SPR), Single Cycle Kinetics; settings: GDP-bound KRAS wild-type protein, read-out: KRAS KD
Sequence of GDP-bound KRAS wild-type protein (P01116 whole entry): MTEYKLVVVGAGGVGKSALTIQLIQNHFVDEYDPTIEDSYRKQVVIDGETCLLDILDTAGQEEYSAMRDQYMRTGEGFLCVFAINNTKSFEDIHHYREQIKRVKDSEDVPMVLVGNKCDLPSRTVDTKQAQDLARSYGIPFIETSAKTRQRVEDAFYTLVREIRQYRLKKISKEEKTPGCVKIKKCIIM

[3] = target: GDP-bound NRAS wild-type protein (Homo sapiens, UniProt P01111); experiment: Binding to NRAS by surface plasmon resonance (SPR), Single Cycle Kinetics; settings: SPR, GDP-bound NRAS wild-type protein vs GDP-bound KRAS wild-type protein
Sequence of GDP-bound NRAS wild-type protein (P01111 whole entry): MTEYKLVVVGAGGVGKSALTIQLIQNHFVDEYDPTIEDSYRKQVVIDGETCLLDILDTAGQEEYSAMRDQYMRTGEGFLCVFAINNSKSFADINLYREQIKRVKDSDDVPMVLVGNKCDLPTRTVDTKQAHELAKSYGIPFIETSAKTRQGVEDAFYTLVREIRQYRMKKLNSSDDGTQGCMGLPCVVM

[4] = SPR Single Cycle Kinetics, 1:1 binding model

| pKd [2, 4] | pKd ([2]; SPR, Single Cycle Kinetics) | SMILES | HRAS/KRAS (ratio of KD value for HRAS to KD value for KRAS) [1] | NRAS/KRAS (ratio of KD value for NRAS to KD value for KRAS) [3] | further results |
| --- | --- | --- | --- | --- | --- |
| 9.85 | – | CCCN1C(=O)CN(C)C(=O)CN(C)C(=O)[C@H]([C@@H](C)CC)NC(=O)[C@H](CC(C)C)N(C)C(=O)C[C@@H](C(=O)N(C)C)NC(=O)[C@H](C2CCCC2)N(C)C(=O)C2(CCCC2)NC(=O)[C@@H]2C[C@@H](OCC)CN2C(=O)[C@H](CCc2ccc(C(F)(F)F)c(Cl)c2)NC(=O)CN(C)C(=O)[C@@H]1Cc1ccc(C(F)(F)F)cc1 [PP0359] ([NMeL]I[Sar][Sar][NPrPhe(4-CF3)][Sar][hPhe(3-Cl-4-CF3)][Hyp](Et)[Ac5c][NMeGly(cPent)]D-NMe2; lactam N-11) | B (a compound having 3 or more and less than 10 is denoted as B) | B (a compound having 3 or more and less than 10 is denoted as B) | – |
| – | 9.96 | C#CC[C@H]1C(=O)N[C@@H]([C@@H](C)CC)C(=O)N(C)CC(=O)N(C)[C@H]2C/C=C\CCN(C2=O)[C@@H](Cc2ccc(C(F)(F)F)cc2)C(=O)N(C)CC(=O)N[C@@H](CCc2cc(F)c(C(F)(F)F)c(F)c2)C(=O)N2C[C@H](OCC)C[C@H]2C(=O)NC2(CC(C)(C)C2)C(=O)N(C)[C@@H](C2CCCC2)C(=O)N(C)[C@H](C(=O)N(C)CCC)CC(=O)N1C [PP2074] | A (a compound having 10 or more and less than 20 is denoted as A) | A (a compound having 10 or more and less than 20 is denoted as A) | – |
| – | 8.54 | CC[C@H](C)[C@@H]1NC(=O)[C@H](CC(C)C)N(C)C(=O)C[C@@H](C(=O)N2CCOCC2)N(C)C(=O)[C@H](C2CCCC2)N(C)C(=O)C2(CCC2)NC(=O)[C@@H]2[C@@H](OC)CCN2C(=O)[C@H](CCc2cc(F)c(C(F)(F)F)c(F)c2)NC(=O)CN(C)C(=O)[C@H](Cc2ccc(C(F)(F)F)cc2)N2CCCCC[C@@H](C2=O)N(C)C(=O)CN(C)C1=O [PP1067] | B (a compound having 3 or more and less than 10 is denoted as B) | B (a compound having 3 or more and less than 10 is denoted as B) | – |
| 9.07 | – | CC[C@H](C)[C@@H]1NC(=O)[C@H](CC(C)C)N(C)C(=O)C[C@@H](C(=O)N2CCOCC2)N(C)C(=O)[C@H](C2CCCC2)N(C)C(=O)C2(CCC2)NC(=O)[C@@H]2CCCN2C(=O)[C@H](CCc2cc(F)c(C(F)(F)F)c(F)c2)NC(=O)CN(C)C(=O)[C@H](Cc2ccc(C(F)(F)F)cc2)N2CCCCC[C@@H](C2=O)N(C)C(=O)CN(C)C1=O [PP0497] | – | – | HRAS/KRAS (ratio of KD value with respect to HRAS to KD value with respect to KRAS) [1]: B (a compound having 3 or more and less than 10 is denoted as B); NRAS/KRAS (ratio of KD value with respect to NRAS to KD value with respect to KRAS) [3]: B (a compound having 3 or more and less than 10 is denoted as B) |
| – | 10.38 | CCO[C@@H]1C[C@H]2C(=O)N(C)C3(CC(C)(C)C3)C(=O)N(C)[C@@H](C3CCCC3)C(=O)N(C)[C@H](C(=O)N(C)C)CC(=O)N(C)[C@H]3CCC/C=C/c4ccc(cc4)C[C@@H](C(=O)N(C)CC(=O)N[C@@H](CCc4cc(F)c(C(F)(F)F)c(F)c4)C(=O)N2C1)N1CC/C=C\C[C@@H](C1=O)N(C)C(=O)CN(C)C(=O)[C@H]([C@@H](C)CC)NC3=O [PP3060] | B (a compound having 3 or more and less than 10 is denoted as B) | B (a compound having 3 or more and less than 10 is denoted as B) | – |
| 9.96 | – | CCCN1C(=O)CN(C)C(=O)CN(CC)C(=O)[C@H]([C@@H](C)CC)NC(=O)[C@H](CC(C)C)N(C)C(=O)C[C@@H](C(=O)N(C)C)N(C)C(=O)[C@H](C2CCCC2)N(C)C(=O)C2(CCCC2)NC(=O)[C@@H]2C[C@@H](OCC)CN2C(=O)[C@H](CCc2ccc(C(F)(F)F)c(Cl)c2)NC(=O)CN(C)C(=O)[C@@H]1Cc1ccc(C(F)(F)F)cc1 [PP0427] ([NMeL]I[NEtG][Sar][NPrPhe(4-CF3)][Sar][hPhe(3-Cl-4-CF3)][Hyp](Et)[Ac5c][NMeGly(cPent)][NMeD]-NMe2; lactam N-11) | – | – | HRAS/KRAS (ratio of KD value with respect to HRAS to KD value with respect to KRAS) [1]: C (A compound having a KD ratio of 0.1 or more and less than 3 is denoted as C); NRAS/KRAS (ratio of KD value with respect to NRAS to KD value with respect to KRAS) [3]: B (a compound having 3 or more and less than 10 is denoted as B) |
| 9.85 | – | CC[C@H](C)[C@@H]1NC(=O)[C@H](CC(C)C)N(C)C(=O)C[C@@H](C(=O)N2CCOCC2)N(C)C(=O)[C@H](C2CCCC2)N(C)C(=O)C2(CCCC2)NC(=O)[C@@H]2CCCN2C(=O)[C@H](CCc2ccc(C(F)(F)F)c(Cl)c2)NC(=O)CN(C)C(=O)[C@H](Cc2ccc(C)cc2)N(CCCOC)C(=O)CN(C)C(=O)CN(C)C1=O [PP0105] ([NMeL]I[Sar][Sar][X28][Sar][hPhe(3-Cl-4-CF3)]P[Ac5c][NMeGly(cPent)][NMeD]-Morpholide; lactam N-11) | C (A compound having a KD ratio of 0.1 or more and less than 3 is denoted as C) | B (a compound having 3 or more and less than 10 is denoted as B) | – |
| – | – | CCO[C@@H]1C[C@H]2C(=O)NC3(CCC3)C(=O)N(C)[C@@H](C3CCCC3)C(=O)N(C)[C@H](C(=O)N(C)CCOC)CC(=O)N(C)[C@@H](CC(C)C)C(=O)N[C@@H]([C@@H](C)CC)C(=O)N(C)CC(=O)N(C)[C@H]3C/C=C\CCN(C3=O)[C@@H](Cc3ccc(C(F)(F)F)cc3)C(=O)N(C)CC(=O)N[C@@H](CCc3ccc(Cl)c(Cl)c3)C(=O)N2C1 [PP1326] | – | – | HRAS/KRAS (ratio of KD value for HRAS to KD value for KRAS) ([1]; KD ratio class): A (a compound having 10 or more and less than 20 is denoted as A); pKd ([2]; SPR, Single Cycle Kinetics, 1:1 binding model): 9.57; NRAS/KRAS (ratio of KD value for NRAS to KD value for KRAS) ([3]; KD ratio class): AA (a compound having 20 or more is denoted as AA) |
| – | 9.39 | CCC[C@H]1C(=O)N[C@@H]([C@@H](C)CC)C(=O)N(C)CC(=O)N(C)[C@H]2C/C=C\CCN(C2=O)[C@@H](CC2CCCCC2)C(=O)N(C)CC(=O)N[C@@H](CCc2ccc(C(F)(F)F)c(OC)c2)C(=O)N2C[C@H](OCC)C[C@H]2C(=O)N(C)C2(CCC2)C(=O)N(C)[C@@H](C2CCCC2)C(=O)N(C)[C@H](C(=O)N(C)C)CC(=O)N1C [PP2336] | A (a compound having 10 or more and less than 20 is denoted as A) | A (a compound having 10 or more and less than 20 is denoted as A) | – |
| – | 9.72 | CCO[C@@H]1C[C@H]2C(=O)NC3(CC(C)(C)C3)C(=O)N(C)[C@@H](C(CC)CC)C(=O)N(C)[C@H](C(=O)N(C)C)CC(=O)N(C)[C@@H](CC)C(=O)N[C@@H]([C@@H](C)CC)C(=O)N(C)CC(=O)N(C)[C@H]3C/C=C\CCN(C3=O)[C@@H](Cc3ccc(C(F)(F)F)cc3)C(=O)N(C)CC(=O)N[C@@H](CCc3cc(F)c(C(F)(F)F)c(F)c3)C(=O)N2C1 [PP2062] | A (a compound having 10 or more and less than 20 is denoted as A) | AA (a compound having 20 or more is denoted as AA) | – |
| – | 10.60 | CC[C@H](C)[C@@H]1NC(=O)[C@H](CC(C)C)N(C)C(=O)C[C@@H](C(=O)N2CCOCC2)N(C)C(=O)[C@H](C2CCCC2)N(C)C(=O)C2(CCC2)NC(=O)[C@@H]2C[C@@H](OCC(F)F)CN2C(=O)[C@H](CCc2cc(F)c(C(F)(F)F)c(F)c2)NC(=O)CN(C)C(=O)[C@H](Cc2ccc(C(F)(F)F)cc2)N2CCCC[C@@H](C2=O)N(C)C(=O)CN(C)C1=O [PP1002] | B (a compound having 3 or more and less than 10 is denoted as B) | B (a compound having 3 or more and less than 10 is denoted as B) | – |
| – | 9.15 | CCC[C@H]1C(=O)N[C@@H]([C@@H](C)CC)C(=O)N(C)CC(=O)N(C)[C@H]2C/C=C\CCN(C2=O)[C@@H](Cc2ccc(C)cc2)C(=O)N(C)CC(=O)N[C@@H](CCc2ccc(Cl)c(Cl)c2)C(=O)N2C[C@H](OCC)C[C@H]2C(=O)NC2(CC(C)(C)C2)C(=O)N(C)[C@@H](C(CC)CC)C(=O)N(C)[C@H](C(=O)N(C)C)CC(=O)N1C [PP2184] | A (a compound having 10 or more and less than 20 is denoted as A) | AA (a compound having 20 or more is denoted as AA) | – |
| 9.42 | – | CCCN1C(=O)[C@@H]2CCN2C(=O)[C@H](C)N(C)C(=O)[C@H]([C@@H](C)CC)NC(=O)[C@H](CC(C)C)N(C)C(=O)C[C@@H](C(=O)N2CCOCC2)NC(=O)[C@H](C2CCCC2)N(C)C(=O)C2(CCC2)NC(=O)[C@@H]2C[C@@H](OCC)CN2C(=O)[C@H](CCc2ccc(C(F)(F)F)c(Cl)c2)NC(=O)CN(C)C(=O)[C@@H]1Cc1ccc(C(F)(F)F)cc1 [PP0348] ([NMeL]I[NMeA][Aze][NPrPhe(4-CF3)][Sar][hPhe(3-Cl-4-CF3)][Hyp](Et)[Ac4c][NMeGly(cPent)]D-Morpholide; lactam N-11) | B (a compound having 3 or more and less than 10 is denoted as B) | C (A compound having a KD ratio of 0.1 or more and less than 3 is denoted as C) | – |
| – | 8.42 | CCO[C@@H]1C[C@H]2C(=O)NC3(CC(C)(C)C3)C(=O)N(C)[C@@H](C(CC)CC)C(=O)N(C)[C@H](C(=O)N(C)C)CC(=O)N(C)[C@@H](C)C(=O)N[C@@H]([C@@H](C)CC)C(=O)N(C)CC(=O)N(C)[C@H]3C/C=C\CCN(C3=O)[C@@H](Cc3ccc(C)cc3)C(=O)N(C)CC(=O)N[C@@H](CCc3ccc(C(F)(F)F)c(Cl)c3)C(=O)N2C1 [PP2150] | A (a compound having 10 or more and less than 20 is denoted as A) | AA (a compound having 20 or more is denoted as AA) | – |

Source: patent publication US20240158446A1, “CYCLIC COMPOUND HAVING SELECTIVE INHIBITORY ACTION ON KRAS OVER HRAS AND NRAS” (CHUGAI SEIYAKU KABUSHIKI KAISHA, priority 2021, published 2024)
